Results reported in publication PMC4836799, “Experimental and Theoretical Evaluation of the Ethynyl Moiety as a Halogen Bioisostere” (ACS Chemical Biology, 2015).
Several values for one entry are separate records, joined by “and”; a condition that tells them apart may be missing. Equal values may be shown once.

How the values were obtained:
[1] = target: T1, p53-Y220C DNA-binding domain (Homo sapiens, UniProt P04637, M133L/N239Y/N268D/V203A/Y220C); test: Competition ITC with PK5174 (1) as coupling ligand
T1 construct: made in house
Experimental: We assessed the binding of 3 to the stabilized DNA-binding domain of the p53 mutant Y220C (residues 94–312) using an array of biophysical techniques. […] Because the competition titration could not be performed at a c-value of 2 or higher, it was not possible to reliably decompose ΔG into ΔH and ΔS.[25]
All ITC experiments were conducted using a Microcal iTC200 calorimeter as previously described.[14] Briefly, protein and compounds were dissolved in 25 mM KPi, pH 7.2, 150 mM NaCl, 1 mM TCEP in 5% (v/v) DMSO. The cell unit contained 80 μM protein, and 2 mM compound was used for the syringe. The ITC competition experiment was conducted using 500 μM of compound 3 and 50 μM protein for the cell sample and 2 mM of compound 1 in the syringe. The actual and apparent binding constants for 1 were calculated with MicroCal Origin software using a standard one-site model. The binding constant of 3 was then calculated using an equation for ITC displacement titrations described by Zhang and Zhang[24] [drawing 2]

[2] = target: T2, T-p53C-Y220C (Homo sapiens, UniProt P04637, M133L/N239Y/N268D/V203A/Y220C); test: Differential scanning fluorimetry (DSF); assay type: binding; conditions: 10 μM protein
T2 construct: made in house
Experimental: The effect of compounds on the melting temperature of T-p53C-Y220C were monitored using SYPRO Orange (Invitrogen, USA) as a fluorescent probe, which quantitatively binds to hydrophobic protein patches exposed upon thermal denaturation. Real-time melt analysis was performed using a Corbett Rotor-Gene 6000 real-time qPCR thermocycler. Excitation and emission filters were set to 460 and 510 nm, respectively. Heating from 28 to 60 °C, a constant heating rate of 270 K/h was applied. The protein (final concentration of 10 μM) was briefly mixed with SYPRO orange (10x) in buffer (25 mM KPi pH 7.2, 150 mM NaCl, 1 mM TCEP), and compound (5 mM) dissolved in DMSO was added to give a final compound concentration of 250 μM in 5% (v/v) DMSO. The melting temperature (Tm) of the protein (10 μM) in the presence of compounds was determined from the inflection point of the melting curve. Melting temperatures were compared with control samples without compound (yielding ΔTm DSF). All samples were measured in triplicate.

Kd ([1]; competition with PK5174 (1), 500 μM compound 3, equation of Zhang and Zhang, read-out: KD determined indirectly by competition ITC): ~270 µM and 271 µM | loss in affinity ([1]; ethynyl compound 3 versus iodo compound 2): approximately 13 fold
SMILES: C#Cc1cc(C#CCOc2ccccc2)cc(CN2CCC(N(CC)CC)CC2)c1O [PK5211, 2-((4-(diethylamino)piperidin-1-yl)methyl)-6-ethynyl-4-(3-phenoxyprop-1-ynyl)phenol]
thermal stabilization of the mutant protein (Tm) [2]: concentration-dependent thermal stabilization | thermal stabilization of the mutant protein (Tm) ([2]; listed as 3): concentration-dependent increase of the protein melting point
